Assays:
Dopamine D3 = Dopamine D3 (Homo sapiens (Human), UniProt P35462); assay: Dopamine D3 binding
Excerpt: (§1) Further, the compounds of the invention may be tested in binding assays and functional activity assays by well known methods for other physiologically important receptors such as, but not limited to, the hERG channel, other serotonin receptors (specifically 5-HT1B, 5-HT1D, receptors, lack of agonist activity at 5-HT2B receptors, 5-HT2C, 5-HT5, 5-HT6, and 5-HT7 receptors), dopaminergic receptors (specifically D1, D2, and D3), GABAA receptors, adrenergic receptors and monoamine transporters.

[1] = Plasma clearance in rat (intravenous); type: in vivo; details: male, Sprague Dawley, rat, plasma, iv, 1 mg/kg, read-out: Clearance
Protocol: Male Sprague Dawley rats (body weight range 250-320 g) with indwelling femoral arterial cannulae are obtained from Charles River, Wilmington, Mass. 01887, USA. Test compound is administered intravenously in solution (1 mL/kg) in 20% Captisol® in 22.5 mM phosphate buffer, pH 2, at a final drug concentration of 1.0 mg/mL (free base equivalents). Blood samples are obtained using the indwelling cannula over 24 hr. Samples of plasma are obtained by centrifugation and stored frozen (−20° C.), or on dry ice, prior to analysis.
Frozen plasma samples are thawed to room temperature for bioanalysis of concentrations of test compound. A related internal standard compound in acetonitrile/methanol (1:1, v/v) is added to all samples of plasma (1:1, v/v). The samples are centrifuged to remove precipitated protein prior to analysis. The supernatants are analysed by injection and rapid gradient elution on a Javelin Betasil C18 column (20×2.1 mm cartridge, Mobile phase A: Water/1 M NH4HCO3, 2000:10 v/v, Mobile Phase B: MeOH/1 M NH4HCO3, 2000:10 v/v). The eluted analytes are detected by LC-MS-MS analysis using a Sciex API 4000 triple quadrupole mass spectrometer. Concentrations of compound are determined from standards prepared and analysed under identical conditions. Clearance is calculated using non-compartmental analysis in Watson 7.4, Thermo Fisher Scientific, Inc.

Dopamine D2 = Dopamine D2 (Homo sapiens (Human), UniProt P14416); assay: Dopamine D2 binding
Dopamine D2, sequence (P14416 whole entry): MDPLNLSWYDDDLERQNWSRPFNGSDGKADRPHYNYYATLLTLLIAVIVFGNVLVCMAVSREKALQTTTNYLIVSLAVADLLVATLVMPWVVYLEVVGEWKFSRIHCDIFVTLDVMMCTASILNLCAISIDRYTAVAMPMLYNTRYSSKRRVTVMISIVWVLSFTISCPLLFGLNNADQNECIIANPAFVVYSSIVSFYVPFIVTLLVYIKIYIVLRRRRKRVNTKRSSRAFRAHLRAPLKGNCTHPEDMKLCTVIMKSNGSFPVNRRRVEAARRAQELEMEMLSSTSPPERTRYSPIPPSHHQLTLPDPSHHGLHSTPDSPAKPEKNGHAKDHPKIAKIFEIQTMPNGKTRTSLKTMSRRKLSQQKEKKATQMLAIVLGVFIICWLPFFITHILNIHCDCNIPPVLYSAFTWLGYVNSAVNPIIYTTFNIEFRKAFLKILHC
Excerpt: as §1

[2] = target: recombinant 5-HT2C receptor (human) (Homo sapiens (Human), UniProt P28335); assay: 5-HT2C competition binding assay ([125I]-DOI, SPA)
recombinant 5-HT2C receptor (human), sequence (P28335 whole entry, looked up): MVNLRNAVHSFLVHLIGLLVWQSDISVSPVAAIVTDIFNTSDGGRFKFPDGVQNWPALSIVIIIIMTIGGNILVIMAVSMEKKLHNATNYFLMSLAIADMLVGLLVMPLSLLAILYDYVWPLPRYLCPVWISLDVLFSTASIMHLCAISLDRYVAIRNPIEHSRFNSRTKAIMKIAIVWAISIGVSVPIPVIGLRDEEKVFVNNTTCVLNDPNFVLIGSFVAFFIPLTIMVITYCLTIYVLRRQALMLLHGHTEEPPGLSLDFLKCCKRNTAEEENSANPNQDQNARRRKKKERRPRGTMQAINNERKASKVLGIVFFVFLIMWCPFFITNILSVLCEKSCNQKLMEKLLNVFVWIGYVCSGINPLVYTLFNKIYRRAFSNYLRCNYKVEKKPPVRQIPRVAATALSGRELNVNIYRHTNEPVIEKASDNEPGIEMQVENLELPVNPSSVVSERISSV
Protocol: [^125I]-(±)DOI binding experiments are carried out in SPA 96-well format. Membranes used in this assay are prepared from AV-12 cells stably expressing recombinant 5-HT2C receptor (human). The incubation is initiated by the addition of a mixture of WGA PVT SPA beads (0.5 mg/well, Perkin Elmer (MA, USA), RPNQ0001) and 2.5 μg membranes to assay buffer (50 mM Tris-HCl, 10 mM MgCl2, 0.5 mM EDTA, 10 μM pargyline, 0.1% ascorbic acid, pH7.4) containing 0.2 nM [[^125I]-(±)DOI and varying concentrations of the test compound (10 point concentration response curves). Non-specific binding is determined in the presence of 20 μM 1-(1-Naphthyl) piperazine. Samples are incubated for 4 hr. at room temperature (22° C.) and then read in a Microbeta Trilux.
Curves are evaluated using a 4-parameter logistic nonlinear equation to obtain the concentration of competitor causing 50% inhibition of radioligand binding (IC50). Equilibrium dissociation constants (Ki) are calculated according to the equation Ki=IC50/(1+L/Kd), where L equals the concentration of radioligand used in the experiment and Kd equals the equilibrium dissociation constant of the radioligand for the receptor, determined from standard saturation analysis or homologous competition experiments. […]

[3] = target: recombinant 5-HT2A receptor (human) (Homo sapiens (Human), UniProt P28223); assay: 5-HT2A competition binding assay ([3H]-Ketanserin, SPA)
Protocol: [^3H]-Ketanserin binding experiments are carried out in SPA 96-well format. Membranes used in this assay are prepared from AV-12 cells stably expressing recombinant 5-HT2A receptor (human). The incubation is initiated by the addition of a mixture of WGA YSi SPA beads (1 mg/well, Perkin Elmer (MA, USA), RPNQ0011) and 2 μg membranes to assay buffer (67 mM Tris, 0.5 mM EDTA; pH 7.6) containing 3.1 nM [^3H]-Ketanserin and varying concentrations of the test compound (10 point concentration response curves). Non-specific binding is determined in the presence of 20 μM 1-(1-Naphthyl) piperazine. Samples are incubated for 4 hr. at room temperature (22° C.) and then read in a Microbeta Trilux.

[4] = target: human recombinant H1 receptor (Homo sapiens (Human), UniProt P35367); assay: H1 competition binding assay ([3H]-Pyrilamine, SPA)
human recombinant H1 receptor, sequence (P35367 whole entry): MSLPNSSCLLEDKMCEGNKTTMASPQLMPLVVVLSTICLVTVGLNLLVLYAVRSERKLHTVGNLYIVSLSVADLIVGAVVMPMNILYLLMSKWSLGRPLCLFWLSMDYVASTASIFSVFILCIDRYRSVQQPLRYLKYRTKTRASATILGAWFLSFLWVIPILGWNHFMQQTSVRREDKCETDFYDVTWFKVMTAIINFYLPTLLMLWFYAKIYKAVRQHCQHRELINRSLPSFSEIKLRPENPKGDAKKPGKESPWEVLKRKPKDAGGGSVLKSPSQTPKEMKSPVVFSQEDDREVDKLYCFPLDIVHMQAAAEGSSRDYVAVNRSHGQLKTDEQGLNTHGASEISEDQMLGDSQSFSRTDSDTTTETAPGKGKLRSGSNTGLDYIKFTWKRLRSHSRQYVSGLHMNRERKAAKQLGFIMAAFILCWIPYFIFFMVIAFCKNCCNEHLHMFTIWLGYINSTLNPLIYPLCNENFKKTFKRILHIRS
Protocol: [^3H]-Pyrilamine binding experiments are carried out in SPA (scintillation proximity assay) 96-well format. Membranes used in this assay are prepared from HEK-293 cells stably expressing recombinant H1 receptor (human). The incubation is initiated by the addition of a mixture of WGA PVT SPA beads (1 mg/well, Perkin Elmer (MA, USA) RPNQ0001) and 3 μg membranes to assay buffer (67 mM Tris; pH 7.6) containing 3.5 nM [^3H]-Pyrilamine and varying concentrations of the test compound (10 point concentration response curves). Non-specific binding is determined in the presence of 10 μM Triprolidine. Samples are incubated for 4 hr. at room temperature (22° C.) and then read in a Microbeta Trilux.
Curves are evaluated using a 4-parameter logistic nonlinear equation to obtain the concentration of competitor causing 50% inhibition of radioligand binding (IC50). Equilibrium dissociation constants (Ki) are calculated according to the equation Ki=IC50/(1+L/Kd), where L equals the concentration of radioligand used in the experiment and Kd equals the equilibrium dissociation constant of the radioligand for the receptor, determined from standard saturation analysis or homologous competition experiments. Reported values for Ki, where n values are indicated, are shown as geometric mean±the standard error of the mean (SEM), with the number of replicate determinations indicated by n. […]

Dopamine D3, sequence (P35462 whole entry): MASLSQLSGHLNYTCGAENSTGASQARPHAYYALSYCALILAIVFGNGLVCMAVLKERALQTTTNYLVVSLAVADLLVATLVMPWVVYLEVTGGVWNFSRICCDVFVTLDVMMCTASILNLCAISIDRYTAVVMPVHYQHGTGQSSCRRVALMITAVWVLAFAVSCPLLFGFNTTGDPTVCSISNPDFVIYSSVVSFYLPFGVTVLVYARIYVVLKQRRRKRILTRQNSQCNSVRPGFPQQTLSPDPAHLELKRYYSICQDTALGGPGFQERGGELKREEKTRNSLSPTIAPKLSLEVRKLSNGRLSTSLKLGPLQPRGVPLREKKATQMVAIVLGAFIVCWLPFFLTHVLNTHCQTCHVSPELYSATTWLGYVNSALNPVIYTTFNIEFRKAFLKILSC

Cc1ccc2c(c1)Oc1sc(Cl)cc1C(N1CCN(CC(C)(C)C(=O)O)CC1)=N2 [Example 1, 3-[4-(2-Chloro-8-methyl-thieno[2,3-b][1,5]benzoxazepin-4-yl)piperazin-1-yl]-2,2-dimethyl-propanoic acid]
Ki (Dopamine D3): > 5510 nM
clearance [1]: 14.1 mL/min/kg
Ki (Dopamine D2): 2780 nM
Ki [2]: 137 nM
Ki [3]: 3.37 nM
Ki [4]: 20.6 nM

— patent publication US9481688B2, “(Thieno[2,3-b][1,5]benzoxazepin-4-yl)piperazin-1-yl compounds as dual activity H1 inverse agonists/5-HT2A antagonists” (Eli Lilly and Company, priority 2011, dated 2016)
